The values that follow come from ChEMBL document CHEMBL1201862, “PubChem BioAssay data set” (2004).

One may read the Ki as the dissociation constant of the complex between target and ligand, obtained from inhibition or displacement. As a reminder, the IC50 is the concentration at which inhibition is half-maximal.

Format in all cases: functional
Experiment [1] concerns the target T1, Receptor-type tyrosine-protein kinase FLT3 (Homo sapiens, UniProt P36888).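 Further: FLT3 was tested as one member of a kinome-wide kinase panel.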
T1 sequence (P36888 whole entry): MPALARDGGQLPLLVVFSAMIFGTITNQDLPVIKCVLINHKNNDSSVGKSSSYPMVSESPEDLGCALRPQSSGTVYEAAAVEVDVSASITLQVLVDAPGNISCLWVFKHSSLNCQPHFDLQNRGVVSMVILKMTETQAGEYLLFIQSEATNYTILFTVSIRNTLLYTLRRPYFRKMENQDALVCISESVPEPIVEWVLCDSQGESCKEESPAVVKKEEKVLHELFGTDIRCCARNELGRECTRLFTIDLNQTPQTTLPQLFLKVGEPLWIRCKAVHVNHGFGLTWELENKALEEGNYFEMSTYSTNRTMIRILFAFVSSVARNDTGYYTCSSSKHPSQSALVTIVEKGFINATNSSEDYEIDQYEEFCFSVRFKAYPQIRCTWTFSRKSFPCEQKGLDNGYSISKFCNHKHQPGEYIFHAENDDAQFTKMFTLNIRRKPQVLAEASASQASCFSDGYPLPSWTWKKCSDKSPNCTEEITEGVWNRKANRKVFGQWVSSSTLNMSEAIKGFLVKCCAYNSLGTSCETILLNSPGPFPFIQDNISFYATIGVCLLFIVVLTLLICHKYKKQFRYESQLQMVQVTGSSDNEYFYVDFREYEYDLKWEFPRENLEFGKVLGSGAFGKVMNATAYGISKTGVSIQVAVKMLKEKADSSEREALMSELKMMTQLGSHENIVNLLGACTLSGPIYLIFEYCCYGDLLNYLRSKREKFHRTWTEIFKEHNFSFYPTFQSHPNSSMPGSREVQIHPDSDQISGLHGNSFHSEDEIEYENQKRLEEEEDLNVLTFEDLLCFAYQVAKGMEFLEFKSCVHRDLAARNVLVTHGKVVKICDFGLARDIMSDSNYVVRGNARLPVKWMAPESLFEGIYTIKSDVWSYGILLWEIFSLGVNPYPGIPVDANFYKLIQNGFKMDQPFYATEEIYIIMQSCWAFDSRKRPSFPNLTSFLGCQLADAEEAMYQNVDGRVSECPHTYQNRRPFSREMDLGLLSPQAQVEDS

Experiment [2] has as its target Cyclin-dependent kinase 8 (Homo sapiens, UniProt P49336). As to the kind of experiment: Navigating the Kinome. Panel member name: CDK8.
In experiment [3] the target is Vascular endothelial growth factor receptor 2 (Homo sapiens, UniProt P35968).
The target of experiment [4] is T2, Serine/threonine-protein kinase Nek2 (Homo sapiens, UniProt P51955).
T2 sequence (P51955 whole entry): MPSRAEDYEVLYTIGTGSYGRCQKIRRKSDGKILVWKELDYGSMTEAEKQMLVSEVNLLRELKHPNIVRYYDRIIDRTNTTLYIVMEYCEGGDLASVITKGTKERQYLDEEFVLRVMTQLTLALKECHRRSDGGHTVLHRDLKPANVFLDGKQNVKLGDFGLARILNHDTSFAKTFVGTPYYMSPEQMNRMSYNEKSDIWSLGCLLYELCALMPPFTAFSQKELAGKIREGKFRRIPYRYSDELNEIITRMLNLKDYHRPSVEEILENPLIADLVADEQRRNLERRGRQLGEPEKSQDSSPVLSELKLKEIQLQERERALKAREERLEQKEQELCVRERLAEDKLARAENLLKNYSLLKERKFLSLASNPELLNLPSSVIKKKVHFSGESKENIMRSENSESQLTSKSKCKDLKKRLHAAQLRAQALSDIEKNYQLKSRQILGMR

In experiment [5] the target is Cyclin-dependent kinase 5 (Homo sapiens, UniProt Q00535).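 Further: CDK5 measured as one member of a kinase profiling panel.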
In experiment [6] the target is T3, Caspase-3 (Homo sapiens, UniProt P42574).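 Further: Dose-response selectivity test against caspase-3 for candidate inhibitors of sentrin-specific proteases (SENPs).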
T3 sequence (P42574 whole entry): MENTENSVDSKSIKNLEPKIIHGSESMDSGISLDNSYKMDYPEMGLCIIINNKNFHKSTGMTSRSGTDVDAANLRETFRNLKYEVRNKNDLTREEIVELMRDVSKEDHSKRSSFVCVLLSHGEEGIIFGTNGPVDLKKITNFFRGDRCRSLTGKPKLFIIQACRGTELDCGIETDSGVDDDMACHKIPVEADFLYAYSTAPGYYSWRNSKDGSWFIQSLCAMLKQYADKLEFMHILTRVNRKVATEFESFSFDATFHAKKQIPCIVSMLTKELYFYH

Experiment [7] deals with T4, Sentrin-specific protease 7 (Homo sapiens, UniProt Q9BQF6).
T4 sequence (Q9BQF6 whole entry): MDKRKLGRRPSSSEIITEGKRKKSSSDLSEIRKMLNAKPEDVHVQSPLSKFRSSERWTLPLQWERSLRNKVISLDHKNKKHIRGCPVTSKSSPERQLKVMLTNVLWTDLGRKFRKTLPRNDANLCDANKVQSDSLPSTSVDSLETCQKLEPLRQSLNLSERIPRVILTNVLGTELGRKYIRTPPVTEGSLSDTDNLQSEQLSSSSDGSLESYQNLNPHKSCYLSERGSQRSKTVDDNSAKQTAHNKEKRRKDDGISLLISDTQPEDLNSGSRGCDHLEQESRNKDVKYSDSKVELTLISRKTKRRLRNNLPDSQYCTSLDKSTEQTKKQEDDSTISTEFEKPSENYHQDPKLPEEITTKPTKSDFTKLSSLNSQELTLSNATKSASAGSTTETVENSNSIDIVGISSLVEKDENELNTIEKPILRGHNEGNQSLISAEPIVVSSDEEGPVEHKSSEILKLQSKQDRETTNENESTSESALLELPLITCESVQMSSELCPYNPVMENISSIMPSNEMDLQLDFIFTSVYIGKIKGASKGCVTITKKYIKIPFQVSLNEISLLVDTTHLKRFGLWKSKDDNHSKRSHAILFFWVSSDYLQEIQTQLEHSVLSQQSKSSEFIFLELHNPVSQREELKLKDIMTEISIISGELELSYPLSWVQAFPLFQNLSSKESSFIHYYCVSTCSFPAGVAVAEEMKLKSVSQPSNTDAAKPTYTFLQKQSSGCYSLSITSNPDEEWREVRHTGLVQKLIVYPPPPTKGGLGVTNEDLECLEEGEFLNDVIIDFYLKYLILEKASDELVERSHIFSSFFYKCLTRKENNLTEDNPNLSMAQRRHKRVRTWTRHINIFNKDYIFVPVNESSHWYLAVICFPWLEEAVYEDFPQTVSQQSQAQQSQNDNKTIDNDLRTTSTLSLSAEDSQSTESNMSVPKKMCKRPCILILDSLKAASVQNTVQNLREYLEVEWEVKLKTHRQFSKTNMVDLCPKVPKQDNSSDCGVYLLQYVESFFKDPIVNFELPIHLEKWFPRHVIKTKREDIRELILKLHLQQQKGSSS

Each structure is given as a SMILES string. The source made the active and inactive calls.

Chain of Cyclin-dependent kinase 8 (P49336 whole entry): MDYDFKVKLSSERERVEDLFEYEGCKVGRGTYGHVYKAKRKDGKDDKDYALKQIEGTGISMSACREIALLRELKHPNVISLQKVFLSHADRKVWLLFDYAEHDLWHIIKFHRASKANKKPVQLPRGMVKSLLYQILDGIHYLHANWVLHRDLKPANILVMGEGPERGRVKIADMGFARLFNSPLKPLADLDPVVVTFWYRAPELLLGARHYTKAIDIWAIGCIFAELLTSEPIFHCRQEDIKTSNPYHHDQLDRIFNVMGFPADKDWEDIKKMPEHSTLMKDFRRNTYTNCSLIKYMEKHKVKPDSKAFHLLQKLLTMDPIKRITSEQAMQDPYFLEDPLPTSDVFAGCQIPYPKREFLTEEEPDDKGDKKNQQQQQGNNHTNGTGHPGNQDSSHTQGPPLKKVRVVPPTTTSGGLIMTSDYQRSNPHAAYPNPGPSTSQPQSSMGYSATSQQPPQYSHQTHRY
Chain of Vascular endothelial growth factor receptor 2 (P35968 whole entry): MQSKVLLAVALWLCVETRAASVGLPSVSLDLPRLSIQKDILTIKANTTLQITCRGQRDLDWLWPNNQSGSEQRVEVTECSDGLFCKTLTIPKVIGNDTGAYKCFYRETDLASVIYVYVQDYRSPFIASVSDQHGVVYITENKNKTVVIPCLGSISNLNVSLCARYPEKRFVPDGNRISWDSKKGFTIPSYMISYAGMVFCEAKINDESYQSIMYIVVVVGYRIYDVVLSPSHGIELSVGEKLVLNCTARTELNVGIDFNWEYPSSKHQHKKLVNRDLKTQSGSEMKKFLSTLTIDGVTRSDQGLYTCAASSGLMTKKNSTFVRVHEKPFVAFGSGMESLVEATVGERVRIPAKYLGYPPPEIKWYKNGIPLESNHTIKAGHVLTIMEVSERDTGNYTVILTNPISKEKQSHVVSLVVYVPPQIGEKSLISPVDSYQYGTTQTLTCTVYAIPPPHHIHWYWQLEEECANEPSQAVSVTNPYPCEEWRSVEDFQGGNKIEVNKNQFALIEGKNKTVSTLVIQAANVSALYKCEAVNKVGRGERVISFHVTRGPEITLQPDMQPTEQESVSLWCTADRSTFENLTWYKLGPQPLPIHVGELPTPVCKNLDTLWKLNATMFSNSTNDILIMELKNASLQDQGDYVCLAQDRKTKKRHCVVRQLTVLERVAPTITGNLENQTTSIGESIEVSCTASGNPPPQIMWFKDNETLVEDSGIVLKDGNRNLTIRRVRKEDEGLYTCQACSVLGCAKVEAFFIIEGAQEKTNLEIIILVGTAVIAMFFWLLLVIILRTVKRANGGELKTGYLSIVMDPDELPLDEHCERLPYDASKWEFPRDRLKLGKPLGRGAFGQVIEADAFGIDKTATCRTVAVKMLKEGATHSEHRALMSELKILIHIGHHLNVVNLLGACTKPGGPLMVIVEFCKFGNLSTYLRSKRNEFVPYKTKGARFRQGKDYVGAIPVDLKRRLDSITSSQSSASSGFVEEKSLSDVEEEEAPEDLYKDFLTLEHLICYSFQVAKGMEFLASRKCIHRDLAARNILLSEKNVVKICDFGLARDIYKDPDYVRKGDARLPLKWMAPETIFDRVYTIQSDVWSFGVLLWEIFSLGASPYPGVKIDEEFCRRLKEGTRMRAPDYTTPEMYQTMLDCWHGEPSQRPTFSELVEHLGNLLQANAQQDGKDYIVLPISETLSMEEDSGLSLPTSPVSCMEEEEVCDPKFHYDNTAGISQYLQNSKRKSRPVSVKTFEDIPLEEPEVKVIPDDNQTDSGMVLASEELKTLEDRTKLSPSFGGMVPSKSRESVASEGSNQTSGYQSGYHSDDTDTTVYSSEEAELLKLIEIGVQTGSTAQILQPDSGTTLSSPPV
Chain of Cyclin-dependent kinase 5 (Q00535 whole entry): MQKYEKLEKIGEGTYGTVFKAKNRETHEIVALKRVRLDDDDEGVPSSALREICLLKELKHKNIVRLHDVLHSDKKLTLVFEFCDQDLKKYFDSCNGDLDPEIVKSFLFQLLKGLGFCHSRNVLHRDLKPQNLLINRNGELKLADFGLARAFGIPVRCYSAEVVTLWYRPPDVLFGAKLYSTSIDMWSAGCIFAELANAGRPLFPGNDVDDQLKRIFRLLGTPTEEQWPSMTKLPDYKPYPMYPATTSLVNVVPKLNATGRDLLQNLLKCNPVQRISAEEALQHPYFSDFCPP

For the molecule `O=C1Nc2cc(-c3ccc(O)cc3)ccc2C1=Cc1ccc[nH]1`, the Ki in experiment [1] is > 3.16 µM (inactive); in experiment [2], > 3.98 µM (inactive); in experiment [3], 12.6 nM (active); in experiment [4], > 3.16 µM (inactive); in experiment [5], > 3.16 µM (inactive).
As to `Oc1nc(Nc2ccc(F)cc2)cc2ccccc12`, the IC50 in experiment [6] is 4.77 µM (active); in experiment [7], 7.05 µM (active).
With `NC(COc1cncc(-c2ccc3c(c2)C(=Cc2ccc[nH]2)C(=O)N3)c1)Cc1ccccc1` (stereo unspecified), the inhibition constant Ki in experiment [1] was 0.0251 µM (active); in experiment [2], 1.58 µM (active); in experiment [3] it was 0.631 nM (active); in experiment [4] it was 1.26 µM (active); in experiment [5], 0.000631 µM (active).
For `O=C1Cc2cc(-c3ccccc3)cnc2N1`, in that order: 79.4 µM (active), 25.1 µM (active), 31600 nM (active), 39.8 µM (active) and 25.1 µM (active).
Turning to `O=C(NC1=C(Nc2ccc(F)cc2)C(=O)c2ccccc2C1=O)c1ccc(Cl)cc1`, the half-inhibitory concentration (IC50) is 19 µM (active) in experiment [6] and 24.3 µM (active) in experiment [7].
`CN(C)c1cc(N/N=C\c2ccccc2)nc(N(C)C)n1`: the IC50 was > 100 µM (inactive) in experiment [6] and 77.6 µM (active) in experiment [7].
